Experimental data reported in patent US20040162337A1, “Chemical compounds having therapeutic activities in treating cancer” (priority 2003, published 2004).
“Also recorded” adds a separate entry of the source.

Assays:
KB-V1 cells = experiment: Apoptosis study by DNA ladder, KB-V1; type: cell-based, human; settings: 24 hours
Procedure: (§1) This experiment was a continuation of Experiment 7. Apoptotic studies by DNA ladder was carried out for 24 hours with drug treatment at different concentrations (17.26 μM, 34.52 μM & 172.56 μM) of APC. A total of eight groups of cells were used. 5×10^6 cells were washed in PBS. Their genomic DNA was extracted using Apoptotic DNA Ladder Kit-Best. Nr. 1 835 246 (Roche) according to Manufacturer's manual. DNA was analyzed by electrophoresis in 2% agarose gel containing 0.1% ethidium bromide in TAE buffer (99v, 30 min). DNA bands were observed and recorded by Multi-Imager (Bio-Rad, California, USA).

KB-3-1 cells [1] = experiment: Apoptosis study by DNA ladder, KB-3-1; type: cell-based, human; settings: 24 hours
Procedure: In this experiment, three groups of KB-3-1 cells were treated for 24 hours at different concentrations (17.26 μM, 34.52 μM & 172.56 μM) of APC. A control group of KB-3-1 cells was treated as negative control for the same amount of time. Approximately 5×10^6 cells from each of the four groups were washed in phosphate buffered saline (PBS) and their genomic DNA was extracted using Apoptotic DNA Ladder Kit-Best. Nr. 1 835 246 (Roche) according to the manufacturer's manual. The extracted DNA was analyzed by electrophoresis in 2% agarose gel containing 0.1% ethidium bromide in tris galacial acetic acid (TAE) buffer for 30 minutes at 99v. DNA bands of the gel were observed and recorded by Multi-Imager (Bio-Rad, California, USA).
as §1

KB-3-1 cells [2] = experiment: Doxorubicin accumulation assay (flow cytometry), KB-3-1; type: cell-based, human; settings: pre-treatment, then 2 μM doxorubicin 30 min
Procedure: (§2) Data was collected with CellQuest Software and analysed with ModFitLT V2.0. Mean fluorescence intensities of 1×10^4 drug-treated cells were quantified and compared with the APC untreated cells. […] A negative control test was also performed.

actin = experiment: Western blotting of actin; type: cell-based, human; settings: KB-3-1 and KB-V1 cells, 1× and 2× dose of LD50
Procedure: (§3) For protein analysis of P-gp and actin, cells were lysed in ice-cold lysis buffer (1% sodium deoxycholate, 0.1% SDS, 1% Triton X-100, 2 mM phenylmethylsulphonyl fluoride, 1% aprotinin). Total lysates were subjected to SDS/PAGE and electrotransferred to nitrocellulose membranes (Bio-Rad). Membranes were then incubated with anti-P-gp or anti-β-actin antibody (Calbiochem) in blocking buffer (10 mM Tris pH7.5, 100 mM NaCl, 0.1% Tween 20, 5% non-fat dry milk) for 1 hour at room temperature before incubation with horseradish-peroxidase-conjugated anti-(rabbit IgG) or anti-(mouse IgG) antibody (Gibco BRL) for 1 hour at room temperature. Immunobinding was detected by the ECL method (Amersham). β-actin polyclonal antibody (Oncogene Science, Uniondale, N.Y., USA) was used as internal standard. Drug-sensitive KB-3-1 was used as control experiments.

P-glycoprotein (P-gp) = experiment: Western blotting of P-gp; type: cell-based, human; settings: KB-3-1 and KB-V1 cells, 1× and 2× dose of LD50
Procedure: as §3

KB-3-1 cells [3] = experiment: Combination Index (CI-isobologram) of APC and doxorubicin, KB-3-1; type: cell-based, human
Excerpt: (§4) In this experiment, the CI-isobologram by Chou and Talalay was used to determine the Combination Index (CI) of APC and doxorubicin. In order to understand the synergistic effect of APC with a conventional cancer drug, a number of combinations of drug concentrations were used in the combination studies. A mutually non-exclusive equation was used to determine the CIs, and the equation is illustrated and explained in the Appendix section below. CI>1, CI=1, and CI<1 indicate antagonism, additive effect, or synergism, respectively. The explanation of the determination of combination indices (CI) is provided in the Appendix section towards the end of the description.
(§5) The Chou and Talalay (Chou T C; Talay P. Adv Enzyme Regul 1984 22:27-55) combination index CI-isobologram equation for two-drug combination is: [formula]
(§6) Firstly, the Din (Median Dose or LD50) and m of each treatment was determined according to the Median-Effect Plot. […] Combination Indices (CI) were calculated at various fractional kill (fa).
(§7) The CI-isobologram by Chou and Talalay was used to determine the Combination Indices (CI) of APC and doxorubicin. […] The mutually non-exclusive equations were used to determine the CIs and each CI was calculated from the mean affected fraction at each drug ratio concentration.

β-Actin = experiment: Reverse transcription-PCR of β-Actin (internal standard); type: cell-based, human; settings: KB-3-1 and KB-V1 cells, 1× and 2× dose of LD50
Procedure: (§8) 1 μg of total RNA isolated from cells using High Pure™ RNA Isolation Kits (Roche) was incubated with 100 ng random primers (Gibco BRL) and DEPC-treated water (total volume 10 μl) for 10 min at 65° C., then for 5 min on ice. Reverse transcription mixture contained 4 μl of 5× reaction buffer (50 mM Tris-HCl, 100 mM NaCl, 1 mM EDTA, 10 mM DTE, 0.05% polydocanol v/v, 50% glycerol v/v, pH 8.4), 2 μl 10 mM dNTP, 2 μl 100 mM dithiothreitol and 1 μl 50 units/μl Expand™ Reverse Transcriptase (Roche). The reaction lasted for 1.5 hours at 42° C. PCR amplifications were carried out using Expand™ Long Template PCR System (Roche). The primers used were cDNA sequences of p-glycoprotein (P-gp) SEQ ID NO. 1 (sense strand) and SEQ ID NO. 2 (anti-sense strand); cDNA sequences of β-actin SEQ ID NO. 3 (sense strand) and SEQ ID NO. 4 (anti-sense strand). […] of [α-^32P]dATP was added to 25 μl amplification reaction mix. The PCR was performed in a Gene Cycler™ (Bio-Rad) for 27 cycles, consisting of 1 min at 94° C., 1 min at 57° C. and 1 min at 72° C. The samples were heated for 5 min at 94° C. before the first cycle, and the extension time was lengthened to 10 min during the last cycle. PCR products resulted therefrom were size-fractionated on 10% polyacrylamide gel. Autoradiography was carried out with BioMax film (Kodak). Drug-sensitive KB-3-1 was used as control experiments. […]

MDR KB-V1 cells [4] = experiment: Combination Index (CI-isobologram) of APC and doxorubicin, KB-V1; type: cell-based, human; settings: APC 2.0219 μM to 129.3996 μM with doxorubicin, particularly fractional kill greater than 50%
Excerpt: as §4, §5, §6, §7

MDR KB-V1 cells [5] = experiment: Doxorubicin accumulation assay (flow cytometry), KB-V1; type: cell-based, human
Procedure: as §2

MDR1 mRNA = experiment: Reverse transcription-PCR of MDR1; type: cell-based, human; settings: KB-3-1 and KB-V1 cells, 1× and 2× dose of LD50
Procedure: as §8

[6] = system: human carcinoma KB-3-1 cancer cell line; experiment: Sulfo-Rhodamine B (SRB) cytotoxicity assay, KB-3-1; type: cell-based; settings: drug-sensitive KB-3-1 cells, 72 hours, median-effect plot
Procedure: Assays were carried out in triplicate against human carcinoma KB-3-1 cancer cell line. […] The treatment of KB-3-1 cancer cells lasted for 72 hours and the cell number in each sample was estimated by correlating to optical density (OD) at 515 nm. […] The median dose value was determined from plots of median effects and was equivalent to LD50 (Skehan P.; Storeng R.; Scudiero D.; Monks A.; McMahon J.; Vistica D; Warren J T.; Bokesch H.; Kenney S.; Boyd M R.; J Natl Cancer Inst 1990 82:1107-1112).

MDR KB-V1 cells [7] = experiment: Sulfo-Rhodamine B (SRB) cytotoxicity assay, KB-V1; type: cell-based, human; settings: 3-day dose-response
Procedure: In the following experiments, tests were conducted using the human cancer cell lines KB-3-1 and KB-V1. The MDR cancer cells KB-V1 were selected from drug sensitive KB-3-1 cells treated by vinblastine. The cell lines (American Type Culture Collection, MD, USA) were routinely grown in MEM (Gibco, MD, USA) containing 10% fetal bovine serum (FBS) and 1% antibiotic solution (Gibco, MD, USA), and 300 ng/ml of vinblastine for maintenance of drug resistance for KB-V1 cells. Cultures of the cells were maintained in a humidified 5% CO2 incubator.
The color intensity of SRB, positively correlated to number of cell, was estimated by correlating to OD at 515 nm. The concentration of DMSO and ethanol in the drug solvent of APC was 20 wt % and 80 wt % respectively. The concentration of DMSO in each culture sample was ≦0.1%.

## C/C=C(/C)C(=O)OC1C(OC(C)=O)c2c(ccc3ccc(=O)oc23)OC1(C)C (stereo not drawn) [APC, cis-3′-angeloyl-4′-acetoxy-khellactone]
KB-V1 cells; 17.26 μM
  DNA ladder, state of DNA: slightly cut
KB-V1 cells; 172.6 μM
  DNA ladder, state of DNA: cut in larger extent
KB-3-1 cells [1]; 17.26 μM
  DNA ladder, state of DNA: little affected
KB-3-1 cells [1]; 172.6 μM
  apoptosis (DNA fragmentation, DNA ladder): significantly more apoptosis
KB-3-1 cells [2]
  accumulation of doxorubicin in cells: more doxorubicin accumulated
actin
  level of actin: not affected
P-glycoprotein (P-gp)
  level of P-gp proteins: lower
KB-3-1 cells [3]; APC 2.0219 μM to 129.3996 μM with doxorubicin
  synergism with doxorubicin: relatively low synergism; also recorded: little or no synergistic interactions
KB-3-1 cells [3]; drug combination C (doxorubicin 0.0431 μM, APC 129.3996 μM), all fractional kill
  Combination Index (CI): greater than 1
β-Actin
  β-Actin mRNA level: not affected
MDR KB-V1 cells [4]
  synergism with doxorubicin: relatively high synergistic interactions
MDR KB-V1 cells [5]; KB-V1 cells, pre-treatment, then 2 μM doxorubicin 30 min
  accumulation of doxorubicin in cells: substantially higher accumulation of doxorubicin
MDR KB-V1 cells [5]; MDR KB-V1 cells, 6 hours incubation at LD50, then 2 μM doxorubicin 30 min
  increase of doxorubicin accumulation: approximately 25%
MDR1 mRNA
  MDR1 mRNA level: reduced significantly
[6]
  LD50: 41.9153 ± 2.8016 µM
MDR KB-V1 cells [7]
  LD50: 17.2656 ± 8.2441 µM

## COc1cccc2c1C(=O)c1c(O)c3c(c(O)c1C2=O)C[C@@](O)(C(=O)CO)C[C@@H]3O[C@H]1C[C@H](N)[C@H](O)[C@H](C)O1 [doxorubicin, reference compound]
MDR KB-V1 cells [7]
  LD50: 3.0510 ± 0.2846 µM
